This is an account of results in ChEMBL document CHEMBL4725416, “Structure-Based Discovery of Novel Ligands for the Orexin 2 Receptor” (J Med Chem, 2020).

Assay [1] concerns the target T1, Orexin/Hypocretin receptor type 1 (Homo sapiens) (UniProt O43613).
T1 sequence (whole entry): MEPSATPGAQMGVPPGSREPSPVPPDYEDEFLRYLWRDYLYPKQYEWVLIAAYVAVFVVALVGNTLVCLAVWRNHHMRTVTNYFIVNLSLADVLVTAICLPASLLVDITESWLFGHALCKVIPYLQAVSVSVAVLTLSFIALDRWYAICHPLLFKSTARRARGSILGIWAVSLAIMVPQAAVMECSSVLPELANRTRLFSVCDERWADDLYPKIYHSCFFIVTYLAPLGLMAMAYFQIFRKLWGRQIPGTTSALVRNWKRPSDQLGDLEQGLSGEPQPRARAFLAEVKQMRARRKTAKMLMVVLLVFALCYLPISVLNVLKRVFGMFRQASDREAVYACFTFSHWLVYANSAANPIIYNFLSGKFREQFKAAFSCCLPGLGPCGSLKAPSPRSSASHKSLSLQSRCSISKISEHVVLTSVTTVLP
As to the kind of experiment: (§1) Displacement of [3H]-[…] from human orexin 1 receptor expressed in CHO cells incubated for 2 hrs by whole cell radioligand binding assay. It is filed as cell-based. In general terms: In a radioligand displacement assay an active substance lowers the binding of a labelled ligand.

The species entered for another assay is Homo sapiens. The assay is described as follows: Displacement of [3H]-EMPA from human orexin 2 receptor expressed in CHO cells incubated for 2 hrs by whole cell radioligand binding assay. It is filed as cell-based.
Assay [2] has as its target T2, Orexin/Hypocretin receptor type 1 (Homo sapiens, UniProt O43613).
T2 sequence (O43613 whole entry): T1 sequence (whole entry)
The description is as §1. In kind it is cell-based.

Assay [3] deals with T3, Orexin receptor type 2 (Homo sapiens) (UniProt O43614).
T3 sequence (whole entry): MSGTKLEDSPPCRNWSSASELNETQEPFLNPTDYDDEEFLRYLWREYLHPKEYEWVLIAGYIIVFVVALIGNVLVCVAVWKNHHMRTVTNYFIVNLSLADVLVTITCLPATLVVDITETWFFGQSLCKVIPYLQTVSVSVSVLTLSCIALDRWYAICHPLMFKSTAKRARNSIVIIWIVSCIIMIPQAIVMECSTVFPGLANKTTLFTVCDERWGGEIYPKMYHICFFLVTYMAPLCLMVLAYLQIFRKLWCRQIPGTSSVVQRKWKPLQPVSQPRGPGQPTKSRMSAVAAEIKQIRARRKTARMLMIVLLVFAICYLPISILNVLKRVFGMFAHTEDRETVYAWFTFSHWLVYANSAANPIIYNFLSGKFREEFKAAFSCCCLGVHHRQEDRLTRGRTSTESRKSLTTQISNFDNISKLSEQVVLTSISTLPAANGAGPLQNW
As to the kind of experiment: Agonist activity at human orexin 2 receptor expressed in CHO cells assessed as increase in calcium mobilization incubated for 120 secs by Fluo-4AM dye based fluorescence assay. The conditions noted are these: time 120.0 sec. It is filed as functional, cell-based. In general terms: A change in cytosolic calcium serves as a functional read-out for many receptors and channels.

The source made the active and inactive calls.

Consider `CCc1cc2c(=O)c(-c3ccc4c(c3)OCCCO4)coc2cc1OC(=O)N1CCOCC1`, for which the pKi entry (in assay [1]; in the assay listed under Homo sapiens) was “inactive” in each case.
Turning to `Nc1cc(-c2ncccc2C(=O)N2C[C@H]3CC[C@@H]2C3)c2cc[nH]c2n1`, the pKi entry (in assay [1]; in the assay filed under Homo sapiens) was “inactive” throughout.
Turning to `O=C1N(Cc2ccc(F)cc2)C[C@H]2CN(Cc3nccs3)CCN12`, the pKi result (in assay [1]; in the assay filed under Homo sapiens) was “inactive” in each case.
On to `CCOc1ccc(-c2n[nH]c3c2[C@H](c2ccccc2OC)NC3=O)cc1`, for which the pKi entry (in assay [1]; in the assay listed under Homo sapiens) was “inactive” throughout.
A word on the IC50: it is the midpoint of a concentration-inhibition curve. Read a high IC50 as weaker potency. In assay [2], `Cc1ccc(N2CCCN(C(=O)c3cn(C)c4ccccc34)CC2)nn1` registered an IC50 greater than 100 µM. In addition, the pEC50 entry in assay [3] is “inactive”.
On to `N[C@H]1C[C@@H](C(=O)O)N(C(=O)c2ccccc2OCc2ccccc2)C1`, for which the pKi entry (in assay [1]; in the assay filed under Homo sapiens) was “inactive” throughout.
In the case of `C=CCOc1cccc([C@H]2c3c(oc4ccc(C)cc4c3=O)C(=O)N2Cc2ccco2)c1`, the pKi result (in assay [1]; in the assay listed under Homo sapiens) was “inactive” in each case.
Take `Cc1ccc2c(c1)C(=O)N(CCC(=O)N1CCCc3ccccc31)C2=O`: the pKi result (in assay [1]; in the assay listed under Homo sapiens) was “inactive” each time.
In assay [2], `O=C(C1=NN([C@H]2CCS(=O)(=O)C2)C(=O)CC1)N(CCc1ccccc1)c1nc2ccccc2s1` gave an IC50 greater than 100 µM. Moreover, the pEC50 result in assay [3] was “inactive”.
For the compound `O=C1c2oc3ccc(Cl)cc3c(=O)c2[C@H](c2cccc([N+](=O)[O-])c2)N1Cc1ccccc1`, the pKi result (in assay [1]; in the assay listed under Homo sapiens) was “inactive” in each case.
Consider `CN(Cc1ccncc1)C(=O)c1ccc(COc2ccccc2C#N)o1`, for which the pKi entry (in assay [1]; in the assay filed under Homo sapiens) was “inactive” in each case.
`Cc1cc(C(C)(C)C)cc(C)c1Cn1cnc2c1c(=O)n(C)c(=O)n2C`: the pKi entry (in assay [1]; in the assay listed under Homo sapiens) was “inactive” each time.
`O=C(CCc1nc(-c2ccccn2)no1)OCc1ccccn1`: the pKi result (in assay [1]; in the assay filed under Homo sapiens) was “inactive” in each case.
In the case of `O=C(c1ccc(Cl)c(N2CCCC2=O)c1)N1CCN(Cc2cc(=O)n3ccsc3n2)CC1`, the pKi entry (in assay [1]; in the assay listed under Homo sapiens) was “inactive” in each case.
Take `COc1cc([C@H]2c3c(oc4ccc(Cl)cc4c3=O)C(=O)N2Cc2ccccc2)ccc1O`: the pKi entry (in assay [1]; in the assay listed under Homo sapiens) was “inactive” in each case.
Take `Cc1ccc(C(=O)Oc2ccc(N3C(=O)[C@H]4C5C=CC(C6CC65)[C@@H]4C3=O)cc2)cc1` (some centres undefined): the pKi entry (in assay [1]; in the assay listed under Homo sapiens) was “inactive” throughout.
For the compound `N[C@H]1CCCN(C(=O)c2cc(-c3ccccc3)nc3ccccc23)CC1`, the pKi result (in assay [1]; in the assay filed under Homo sapiens) was “inactive” throughout.
In the case of `O=S(=O)(c1ccc(-c2noc(-c3ccco3)n2)cc1)N1CCCCC1`, the pKi result (in assay [1]; in the assay filed under Homo sapiens) was “inactive” throughout.
For the compound `Cn1ccc2c(C(=O)N3CCN(Cc4cscn4)CC3)cccc21`, the pKi result (in assay [1]; in the assay listed under Homo sapiens) was “inactive” each time.
Consider `O=S(=O)([N-]c1nc2ccccc2nc1-[n+]1ccc(Oc2ccccc2)cc1)c1ccccc1`, for which the pKi result (in assay [1]; in the assay filed under Homo sapiens) was “inactive” in each case.
In the case of `O=C(OCCCn1c(=O)[nH]c2ccccc21)c1ccc2c(c1)C(=O)N(c1ccc(Cl)cc1)C2=O`, the pKi result (in assay [1]; in the assay listed under Homo sapiens) was “inactive” throughout.
Regarding `O=C(c1sc2cccc(F)c2c1Cl)N1CCN(Cc2ccco2)CC1`, the pEC50 result in assay [3] was “inactive”.
`O=C(CCCn1cnc2ccccc2c1=O)NCc1ccccn1`: the pKi result (in assay [1]; in the assay filed under Homo sapiens) was “inactive” each time.
Turning to `O=C(CCCN1C(=O)c2cccc3cccc(c23)C1=O)Oc1ccc(F)cc1`, the pKi entry (in assay [1]; in the assay filed under Homo sapiens) was “inactive” in each case.
Turning to `Cc1ccc(C)c(OCC(=O)Oc2ccc3c(C)cc(=O)oc3c2)c1`, the pKi result (in assay [1]; in the assay listed under Homo sapiens) was “inactive” throughout.
Turning to `CS(=O)(=O)N1CCc2cc(S(=O)(=O)N3CCN(Cc4ccc5c(c4)OCO5)CC3)ccc21`, the pKi entry (in assay [1]; in the assay filed under Homo sapiens) was “inactive” throughout.
On to `COc1cccc(C(=O)COc2ccc3c(C)c(C)c(=O)oc3c2)c1`, for which the pKi entry (in assay [1]; in the assay listed under Homo sapiens) was “inactive” each time.
Consider `CCCN1C(C)=NS(=O)(=O)c2cc(C(=O)N3CCN(Cc4ccccc4)CC3)ccc21`, for which the pKi entry (in assay [1]; in the assay listed under Homo sapiens) was “inactive” in each case.
Take `COc1cc([C@H]2c3c(oc4ccccc4c3=O)C(=O)N2Cc2ccc(F)cc2)cc(OC)c1OC`: the pKi entry (in assay [1]; in the assay filed under Homo sapiens) was “inactive” in each case.
On to `Cc1cccc(-n2cc(C(=O)N3CCC[C@@H]([n+]4cc[nH]c4)C3)nn2)c1`, for which the pKi entry (in assay [1]; in the assay listed under Homo sapiens) was “inactive” throughout.
`COc1cccc([C@H]2c3c(oc4ccccc4c3=O)C(=O)N2Cc2ccccc2)c1`: the pKi result (in assay [1]; in the assay filed under Homo sapiens) was “inactive” throughout.
As for `Cc1cc(=O)oc2cc(OCC(=O)c3cccc4ccccc34)ccc12`, the pKi result (in assay [1]; in the assay filed under Homo sapiens) was “inactive” each time.
With `CCOC(=O)c1cc(C(=O)N[C@@H](C)c2ccccc2)c(C)[nH]c1=O`, the pKi entry (in assay [1]; in the assay filed under Homo sapiens) was “inactive” in each case.
With `O=C1NC(=O)C(=Cc2c(OCc3ccccc3F)ccc3ccccc23)C(=O)N1`, the pEC50 entry in assay [3] was “inactive”.
Turning to `COc1ccc2c(c1)c1c(c(=O)n(Cc3ccccc3)c(=O)n1Cc1cc(=O)n3ccccc3n1)n2C`, the pKi entry (in assay [1]; in the assay listed under Homo sapiens) was “inactive” each time.
For the compound `COc1ccc(-n2nc(C(=O)NCCc3ccc(Cl)cc3)c3c4ccccc4n(C)c3c2=O)cc1`, the pKi result (in assay [1]; in the assay listed under Homo sapiens) was “inactive” throughout.
On to `O=C(Oc1cccc2c(OC(=O)c3ccco3)cccc12)c1ccco1`, for which the pKi result (in assay [1]; in the assay listed under Homo sapiens) was “inactive” each time.
On to `O=C(c1ccc(Cl)c(N2CCCC2=O)c1)N1CCN(Cc2ccc3c(c2)CCO3)CC1`, for which the pKi result (in assay [1]; in the assay filed under Homo sapiens) was “inactive” throughout.
Take `COc1cc2cc(C(=O)N3CCN(Cc4ccc5c(c4)OCO5)CC3)c(=O)oc2cc1OC`: the pKi result (in assay [1]; in the assay filed under Homo sapiens) was “inactive” each time.
As for `C[C@H](NC(=O)[C@H]1CC(=O)N(c2ccc3c(c2)CCC3)C1)c1cccnc1`, the pKi result (in assay [1]; in the assay listed under Homo sapiens) was “inactive” throughout.
As for `O=C(C1CC1)N1CCC[C@@H](Cn2cc(-c3cnc(-c4ccco4)nc3)nn2)C1`, the pKi result (in assay [1]; in the assay filed under Homo sapiens) was “inactive” throughout.
As for `Cc1nn(-c2ccccc2)c(C)c1C(=O)O[C@@H](C(N)=O)c1ccccc1`, the pKi result (in assay [1]; in the assay filed under Homo sapiens) was “inactive” throughout.
`O=C(c1cn(Cc2ccc(F)cc2)cc2c(=O)n(-c3ccccc3)nc1-2)N1CCc2ccccc21`: the pKi entry (in assay [1]; in the assay filed under Homo sapiens) was “inactive” throughout.
Turning to `C[C@H](Cc1cnccn1)n1cc(-c2ccnc3ccccc23)nn1`, the pKi entry (in assay [1]; in the assay listed under Homo sapiens) was “inactive” throughout.
With `O=C1c2ccc([N+](=O)[O-])cc2C(=O)N1c1cccc(-c2nc3ccccc3c(=O)o2)c1`, the pKi entry (in assay [1]; in the assay listed under Homo sapiens) was “inactive” each time.
For the compound `CCc1c(C)c2ccc(OCC(=O)c3ccc(F)cc3)cc2oc1=O`, the pKi entry (in assay [1]; in the assay filed under Homo sapiens) was “inactive” in each case.
For `Cc1noc(CN2CCN(C(=O)c3cc4ccccn4c3)CC2)n1`, the pKi entry (in assay [1]; in the assay filed under Homo sapiens) was “inactive” in each case.
As for `O=C(OCC(=O)N1N=C(c2ccc(Cl)cc2)C[C@H]1c1ccco1)c1ccc(-n2cccn2)nc1`, the pKi entry (in assay [1]; in the assay filed under Homo sapiens) was “inactive” in each case.
Consider `COc1ccc(CN2C(=O)c3ccccc3C2=O)cc1C(=O)OCc1cc(=O)n2ccsc2n1`, for which the pKi result (in assay [1]; in the assay listed under Homo sapiens) was “inactive” each time.
Consider `O=C(CCCn1nnc2ccccc2c1=O)NCc1ccccn1`, for which the pKi result (in assay [1]; in the assay filed under Homo sapiens) was “inactive” in each case.
Turning to `COc1cc(=O)n2c(c1C(=O)N(C)[C@@H](C)c1ccco1)CCN(C(=O)c1c(F)cccc1F)CC2`, the pKi result (in assay [1]; in the assay filed under Homo sapiens) was “inactive” each time.
`O=C(c1ccc(N2C(=O)CCC2=O)cc1)N1CCN(Cc2nc(C3CC3)cs2)CC1`: the pKi result (in assay [1]; in the assay filed under Homo sapiens) was “inactive” in each case.
As to `COc1cccc(COc2ccc(-c3noc(-c4ccco4)n3)cc2OC)c1`, the pKi result (in assay [1]; in the assay listed under Homo sapiens) was “inactive” each time.
